According to patent US6495698B1, “Binder-free compacted forms of 1,3-dihalo-5,5-dimethylhydantoins” (Albemarle Corporation, priority 2000, dated 2002):

How the values were obtained:
Type in all cases: physicochemical
[1] = Tableting (pressure compaction) without binder in Sintech press; settings: for compaction into tablets without binder (state of tablets released from the die): without any binder
Description: The commerically available 1,3-dihalo-5,5-dimethylhydantoins referred to in Example 1 were subjected to tableting operations. Five-gram samples of 1,3-dibromo-5,5-dinethylhydantoin and four-gram samples of DCDMH and BCDMH were compacted without binder in a Sintech® press (MTS Systems Corporation, Edenprairie, Minn.) equipped with a punch and die fabricated from Hastelloy® C alloy. Before manually filling the die, the interior surfaces of the die were lightly dusted with micronized polypropylene wax (MICROPRO 400 wax; Micro Powders, Incorporated, Tarrytown, N.Y.). The pressure applied was 5000 psi with no dwell time, i.e., the pressure was terminated automatically immediately upon reaching 5000 psi. The resultant tablets after removal from the die were aged for 6 days at room temperature. Thereupon the tablets were subjected to crush strength testing utilizing a Sintech® 1/S compression apparatus (MTS Systems Corporation, Edenprairie, Minnesota) equipped with Testworks software, which software is installed in the 1/S compression apparatus as supplied by MTS Systems Corporation. The apparatus includes a horizontal circular-shaped load cell interfaced with a computer, a digital micrometer also interfaced with the computer, and a vertical screw-driven piston that is disposed above the load cell and adapted to apply a downward force perpendicular to the load cell. The procedure for measuring crush strength involves measuring the thickness of the tablet with the micrometer to provide a digitized input to the computer. Next the tablet is placed on its edge on the load cell with the piston in contact with the upper edge of the tablet. Then the apparatus is activated whereby the piston commences applying a progressively increasing downward diametral force to the tablet. At the same time, the load cell continuously measures the downward force being applied to the tablet, and the input of such measurements is transmitted to the computer. […]

[2] = Particle size determination with Coulter LS Particle Size Analyzer; settings: for Particle Size 10% is greater than / Particle Size 25% is greater than / Particle Size 50% is greater than / Particle Size 75% is greater than / Particle Size 90% is greater than / Particle Size Average: commercially available sample
Description: All particle size determinations referred to in the following Examples were determined by use of a Coulter® LS Particle Size Analyzer. The analyzer was equipped with an LS 230 small volume module and a Fraunhofer PIDS (Polarization Intensity Differential Scattering) detector switched to the “On” position. The determinations were performed at room temperature with a run time of approximately 1 minute per sample. Prior to conducting the particle size determination, and whenever the sample appeared to contain particles adhering to each other, the sample was subjected for 15±1 seconds to sonication using a Sonicor Model SC-100T apparatus to ensure that the particle size measurements were on individual particles of the product, rather than temporarily agglomerated particles.
Samples of commercially-available N,N′-dihalo-5,5-dimethylhydantoins were obtained and subjected to standard test procedures inorderto determine their average particle size using the Coulter® LS Particle Size Analyzer. Table 1 summarizes the results of these average particle size determinations, and also sets forth the data obtained in the same way on arepresentative sample of the 1,3-dibromo-5,5-dimethylhydantoin product of application Ser. No. 09/484,687. Table 2 summarizes the particle size distribution data on the commercially-available 1,3-dihalo-5,5-dimethylhydantoins. In Table 2 the following abbreviations are used: DCDMH is 1,3-dichloro-5,5-dimethylhydantoin; BCDMH is N,N′-bromochloro-5,5-dimethylhydantoin; and DBDMH is 1,3-dibromo-5,5-dimethylhydantoin.

[3] = Crush strength testing of tablets (Sintech 1/S compression apparatus); settings: binder-free tablets compacted at 5000 psi, aged 6 days at room temperature; average of three tests
Description: The commerically available 1,3-dihalo-5,5-dimethylhydantoins referred to in Example 1 were subjected to tableting operations. Five-gram samples of 1,3-dibromo-5,5-dinethylhydantoin and four-gram samples of DCDMH and BCDMH were compacted without binder in a Sintech® press (MTS Systems Corporation, Edenprairie, Minn.) equipped with a punch and die fabricated from Hastelloy® C alloy. Before manually filling the die, the interior surfaces of the die were lightly dusted with micronized polypropylene wax (MICROPRO 400 wax; Micro Powders, Incorporated, Tarrytown, N.Y.). The pressure applied was 5000 psi with no dwell time, i.e., the pressure was terminated automatically immediately upon reaching 5000 psi. The resultant tablets after removal from the die were aged for 6 days at room temperature. Thereupon the tablets were subjected to crush strength testing utilizing a Sintech® 1/S compression apparatus (MTS Systems Corporation, Edenprairie, Minnesota) equipped with Testworks software, which software is installed in the 1/S compression apparatus as supplied by MTS Systems Corporation. […]
As used herein, including the claims, values given for crush strength are as measured using the apparatus and procedure as described in Example 2 above. […]

[4] = material compacted on small scale in manually filled dies

SMILES	Compaction ([1]; without binder, 5000 psi, no dwell time, die dusted with micronized polypropylene wax, listed as 1,3-dibromo-5,5-dimethyhydantoin)	Average Particle Size ([2]; Source: Albemarle Corporation) [microns]	Average Particle Size ([2]; Source: Aldrich Chemical Co.) [microns]	Average Particle Size ([2]; Source: Great Lakes Chemical Corporation) [microns]	Average Particle Size ([2]; Source: the product of Application No. 09/484,687) [microns]	compaction into tablets without binder (state of tablets released from the die) [1]	Crush strength [3] [lb/in]	Particle Size 10% is greater than [2] [μ]	Particle Size 25% is greater than [2] [μ]	Particle Size 50% is greater than [2] [μ]	Particle Size 75% is greater than [2] [μ]	Particle Size 90% is greater than [2] [μ]	Particle Size Average [2] [μ]	Average Particle Size [2, 4]
CC1(C)C(=O)N(Br)C(=O)N1Br [1,3-dibromo-5,5-dimethylhydantoin]	could not be tableted	64.5	162.1	45.2	>500	–	–	–	–	–	–	–	–	–
CC1(C)C(=O)N(Cl)C(=O)N1Br [BCDMH - Aldrich, N,N′-bromochloro-5,5-dimethylhydantoin]	–	–	323.8	–	–	intact and exhibited no visual surface imperfections	83.9	877.9	409.9	173.9	65.39	29.35	323.8	about 324 microns
CC1(C)C(=O)N(Br)C(=O)N1Br [DBDMH - Albemarle, 1,3-dibromo-5,5-dimethylhydantoin]	–	–	–	–	–	–	–	162.7	90.12	39.21	26.85	17.91	64.59	–
CC1(C)C(=O)N(Br)C(=O)N1Br [DBDMH - Aldrich, 1,3-dibromo-5,5-dimethylhydantoin]	–	–	–	–	–	–	–	359.2	177.6	86.03	47.37	27.67	162.1	–
CC1(C)C(=O)N(Br)C(=O)N1Br [DBDMH - Great Lakes, 1,3-dibromo-5,5-dimethylhydantoin]	–	–	–	–	–	–	–	78.76	49.76	34.68	23.25	13.90	45.23	–
CC1(C)C(=O)N(Cl)C(=O)N1Cl [DCDMH - Aldrich, 1,3-dichloro-5,5-dimethylhydantoin]	–	–	108.1	–	–	intact and exhibited no visual surface imperfections	183.6	195.3	134.4	80.07	45.99	27.19	108.1	about 108 microns
